Measured values from paper PMC9867837 (Cancer letters, 2022).
Like-named read-outs stand apart in the source and are kept apart here. Non-standard residues stand in square brackets, D forms with d. No end group written: not given here. pY = N[C@@H](Cc1ccc(OP(=O)(O)O)cc1)C(=O)O

Tests used:
[1] = molecular target: T1, Stat3:Stat3 DNA-binding activity (Mus musculus, UniProt P42227); experiment: EMSA of Stat3:Stat3 DNA-binding activity in nuclear extracts; type: biochemical; conditions: for Stat3-inhibitory potency on replacing the para-fluorine: EMSA
T1 construct: endogenous in cells; host or cells: NIH3T3/v-Src fibroblasts; EGF-stimulated NIH3T3/hEGFR fibroblasts (nuclear extracts)
Procedure: (§1) Details are presented in Supplementary Information, “Methods”. […]
(§2) min, prior to incubation with the radiolabeled probe for 30 min at 30 °C and subjecting to EMSA analysis.
(§3) In another case, the nuclear extract was pre-incubated with the radiolabeled probe for 30 min at 30 °C prior to incubation with increasing concentration of H182 at room temperature for 30 min and subjecting to EMSA analysis. Bands corresponding to Stats DNA- binding activities were scanned and quantified using ImageJ and plotted as a percentage of control (vehicle) against the concentration of the inhibitor, from which the IC50 values were derived .

[2] = molecular target: T2, Stat1:Stat3 DNA-binding activity (Mus musculus, UniProt P42227); experiment: EMSA of Stat1:Stat3 DNA-binding activity in nuclear extracts of EGF-stimulated NIH3T3/hEGFR; type: biochemical; conditions: Fig. 1C, hSIE probe, 30 min
T2 construct: endogenous in cells; host or cells: EGF-stimulated NIH3T3/hEGFR fibroblasts (nuclear extract)
Procedure: as §1, §2, §3

[3] = molecular target: T3, Stat1:Stat1 DNA-binding activity (Mus musculus, UniProt P42225); experiment: EMSA of Stat1:Stat1 DNA-binding activity in nuclear extracts of EGF-stimulated NIH3T3/hEGFR; type: biochemical; conditions: Fig. 1C, 30 min
T3 construct: endogenous in cells; host or cells: EGF-stimulated NIH3T3/hEGFR fibroblasts (nuclear extract)
T3 sequence (P42225 2-749 limits assumed): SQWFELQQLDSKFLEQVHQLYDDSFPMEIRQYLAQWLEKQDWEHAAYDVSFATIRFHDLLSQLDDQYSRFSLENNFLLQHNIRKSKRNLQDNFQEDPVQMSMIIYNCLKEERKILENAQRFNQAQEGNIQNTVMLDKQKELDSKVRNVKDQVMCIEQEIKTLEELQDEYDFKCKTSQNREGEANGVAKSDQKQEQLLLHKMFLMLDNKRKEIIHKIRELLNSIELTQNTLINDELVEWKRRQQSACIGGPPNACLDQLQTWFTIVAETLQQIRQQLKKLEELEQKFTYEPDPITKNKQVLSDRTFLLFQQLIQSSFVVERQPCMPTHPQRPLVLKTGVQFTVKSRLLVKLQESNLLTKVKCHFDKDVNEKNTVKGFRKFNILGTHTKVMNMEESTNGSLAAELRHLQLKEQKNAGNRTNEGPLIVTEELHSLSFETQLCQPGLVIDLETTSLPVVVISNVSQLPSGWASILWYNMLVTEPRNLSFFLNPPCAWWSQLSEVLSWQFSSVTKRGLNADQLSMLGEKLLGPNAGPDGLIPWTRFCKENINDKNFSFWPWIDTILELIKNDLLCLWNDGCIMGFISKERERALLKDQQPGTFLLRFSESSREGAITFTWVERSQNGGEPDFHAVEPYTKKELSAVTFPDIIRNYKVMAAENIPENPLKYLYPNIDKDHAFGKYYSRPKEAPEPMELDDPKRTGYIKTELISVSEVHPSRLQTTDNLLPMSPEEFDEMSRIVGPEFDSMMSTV
Procedure: (§4) These studies were carried out as previously described using the ^32P-labeled oligonucleotide probes, hSIE (high affinity sis-inducible element from the c-fos gene, m67 variant, 5^′-[…]) that binds Stat1 and Stat3 [11, 12] and the mammary gland factor element (MGFe) from the bovine β–casein gene promoter (sense strand, 5^′-[…]) that binds Stat5 and Stat1 [11, 12]. Details are presented in Supplementary Information, “Methods”. […]
as §2, §3

[4] = molecular target: Stat5:Stat5 DNA-binding activity; experiment: EMSA of Stat5:Stat5 DNA-binding activity in nuclear extracts of EGF-stimulated NIH3T3/hEGFR; type: biochemical, mouse; conditions: Fig. 1C, MGFe probe, 30 min
Procedure: as §4, §2, §3

MDA-MB-231 cells = experiment: CyQuant viable cell number assay, MDA-MB-231; type: cell-based, human
Procedure: (§5) CyQuant assay was performed to evaluate compounds as previously reported. Details are presented in Supplementary Information, “Methods”. […]
(§6) 1.2.6. Cell viability assays
(§7) CyQuant assay was performed to evaluate compounds as previously reported [1 -3] . Briefly, cells (5 x 10^3 per well, 100 µl) in culture in 96-well plates were treated once with 0 -10 µM concentrations of H120, H105, […]
(§8) concentration of H182 for 6 h and then treated with 0- 100 nM docetaxel or 0-20 µM cisplatin for a total of 72 h. Viable cell numbers were assessed by a CyQuant cell proliferation kit according to the manufacturer’s instructions (Thermo/Life Technologies Corp, Carlsbad, CA). Viable cell numbers were normalized to that of DMSO (control)-treated samples. […]

MDA-MB-468 cells = experiment: CyQuant viable cell number assay, MDA-MB-468; type: cell-based, human; conditions: Homo sapiens, MDA-MB-468, 72 h, read-out: IC50 viable cell numbers, MDA-MB-468
Procedure: as §5, §6, §7, §8

[5] = test system: MDA-MB-231 tumor xenografts; experiment: Subcutaneous MDA-MB-231 xenografts in athymic nude mice; type: in vivo
Procedure: Mice were housed in specific pathogen-free conditions in the animal facility. All animal experiments were conducted in accordance with the recommendations in the Guide for the Care and Use of Laboratory Animals on a protocol approved by the Institutional Animal Care and Use Committee (IACUC). Subcutaneous xenograft studies were performed as previously reported. Five-week-old female athymic nude mice were purchased from Envigo (Indianapolis, IN) or Charles River (Wilmington, MA) and maintained in the institutional animal facilities approved by the American Association for Accreditation of Laboratory Animal Care. […] Tumor sizes were monitored every 3–4 days, measured with calipers, and converted to tumor volume, V, according to the formula V = 0.52 × a^2 × b, where a, smallest superficial diameter, and b, largest superficial diameter. For each treatment group, the tumor volumes for each set of measurements were statistically analyzed relative to the control (DMSO-treated; 70% DMSO with sterile PBS) group.
Constitutively-active Stat3 promotes primary tumor development and the progression to therapy resistance. We proceeded to evaluate the in vivo antitumor efficacy against tumor growth in both human xenograft and mouse syngeneic models of TNBC. In four separate studies, we tested the efficacy of H182, H278 (HCl salt of H182), and H120. For these xenografts, the human breast cancer, MDA-MB-231 cells were injected subcutaneously into athymic nude mice. When tumors were palpable (80–120 mm^3), mice were grouped so that the mean tumor sizes were identical between groups and treated as follows: A) intraperitoneal (IP) injections of H182 at 10 mg/kg every other day for 33 days; B) oral gavage of H182 every day at 5 mg/kg for 20 days, and then increased to 20 mg/kg for additional 12 days; and C) oral gavage of H120 at 20 mg/kg, daily for 14 days, and then increased to 30 mg/kg, daily for additional 14 days.

[6] = molecular target: SH2 domain of pure recombinant Stat3 (Homo sapiens, UniProt P40763); experiment: Stat3 fluorescence polarization (FP) assay; type: binding; conditions: 0–10 μM, 5-carboxyfluorescein-GpYLPQTV-NH2 probe
Procedure: Details are presented in Supplementary Information, “Methods”.
The Stat3:azetidine compound interaction was investigated further by focusing on how the compounds might interfere with Stat3 dimerization (Stat3:Stat3), which occurs via pTyr peptide:SH2 domain interaction. […]
confocal microscope (Stellaris 8-STED Super -resolution , Germany) with a 60x oil lens and images were processed by ImageJ software.
1.2.9. Fluorescence polarization assay (FP)
These studies were conducted as previously reported using the labeled phosphopeptide, 5-carboxyfluorescein GpYLPQTV-NH 2 (where pY represents phospho-Tyr) as probe and purified recombinant Stat3, with some modifications. […]
10 µM of unlabeled GpYLPQTV-NH 2 (positive control) or H182 at 30 °C for 30 min in the indicated assay buffer conditions, prior to the addition of the labeled probe at 10 nM final concentration and incubated for 30 min at room temperature, and thereafter reading the FP signal at 10, 30, and 60 min using the SpectraMax ID5 (Molecular Devices, San Jose, CA), with the set gain adjustment at 35 mP. In some cases, the recombinant His-Stat3 was pre-incubated with the unlabeled GpYLPQTV-NH 2 or H182 at 0-10 µM for 10 min or at 0-50 µM for 30 min prior to incubation with the labeled probe, and thereafter reading the FP signal at 10, 30, or 60 min using the SpectraMax ID5, with the set gain adjustment at 35 mP.
1.2.10. […]

[7] = Fig. 1C, extracts of EGF-stimulated NIH3T3/hEGFR, hSIE probe, 30 min, read-out: IC50 Stat3:Stat3
[8] = range over the named compounds and incubation times, read-out: IC50 Stat3 DNA-binding activity in vitro (summary range)
[9] = first Stat1:Stat1 value listed (hSIE probe)
[10] = second Stat1:Stat1 value listed (MGFe probe)
[11] = Homo sapiens, MDA-MB-231, read-out: IC50 viable cell numbers, MDA-MB-231, CyQuant, 72 h
[12] = Table 1, replacement of p-fluorine (R1), read-out: EMSA IC50

T1 sequence (P42227 2-770 limits assumed): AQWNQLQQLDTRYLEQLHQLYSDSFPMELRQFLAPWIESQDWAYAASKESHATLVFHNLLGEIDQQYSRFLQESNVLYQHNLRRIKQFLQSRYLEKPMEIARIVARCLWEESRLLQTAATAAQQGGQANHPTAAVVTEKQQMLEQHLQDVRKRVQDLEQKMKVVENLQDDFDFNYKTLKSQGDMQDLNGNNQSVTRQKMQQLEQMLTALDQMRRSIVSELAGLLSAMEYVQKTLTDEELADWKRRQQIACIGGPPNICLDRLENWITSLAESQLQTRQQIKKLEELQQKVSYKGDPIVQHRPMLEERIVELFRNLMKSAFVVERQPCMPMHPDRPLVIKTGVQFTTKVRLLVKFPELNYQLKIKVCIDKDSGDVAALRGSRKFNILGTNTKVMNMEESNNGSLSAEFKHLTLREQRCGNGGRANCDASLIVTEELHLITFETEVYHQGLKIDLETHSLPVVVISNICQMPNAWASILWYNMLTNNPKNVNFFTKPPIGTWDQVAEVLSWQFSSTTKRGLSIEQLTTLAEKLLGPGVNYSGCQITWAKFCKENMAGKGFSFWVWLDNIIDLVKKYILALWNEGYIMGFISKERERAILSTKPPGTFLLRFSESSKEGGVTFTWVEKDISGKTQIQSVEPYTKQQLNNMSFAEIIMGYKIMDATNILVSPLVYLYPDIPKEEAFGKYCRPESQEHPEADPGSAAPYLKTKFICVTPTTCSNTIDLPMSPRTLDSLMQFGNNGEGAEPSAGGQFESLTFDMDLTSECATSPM
T2 sequence (P42227 2-770 limits assumed, one chain of several): as the sequence (P42227 2-770 limits assumed) above
Chain of SH2 domain of pure recombinant Stat3 (P40763 whole entry, the tested form may be a part): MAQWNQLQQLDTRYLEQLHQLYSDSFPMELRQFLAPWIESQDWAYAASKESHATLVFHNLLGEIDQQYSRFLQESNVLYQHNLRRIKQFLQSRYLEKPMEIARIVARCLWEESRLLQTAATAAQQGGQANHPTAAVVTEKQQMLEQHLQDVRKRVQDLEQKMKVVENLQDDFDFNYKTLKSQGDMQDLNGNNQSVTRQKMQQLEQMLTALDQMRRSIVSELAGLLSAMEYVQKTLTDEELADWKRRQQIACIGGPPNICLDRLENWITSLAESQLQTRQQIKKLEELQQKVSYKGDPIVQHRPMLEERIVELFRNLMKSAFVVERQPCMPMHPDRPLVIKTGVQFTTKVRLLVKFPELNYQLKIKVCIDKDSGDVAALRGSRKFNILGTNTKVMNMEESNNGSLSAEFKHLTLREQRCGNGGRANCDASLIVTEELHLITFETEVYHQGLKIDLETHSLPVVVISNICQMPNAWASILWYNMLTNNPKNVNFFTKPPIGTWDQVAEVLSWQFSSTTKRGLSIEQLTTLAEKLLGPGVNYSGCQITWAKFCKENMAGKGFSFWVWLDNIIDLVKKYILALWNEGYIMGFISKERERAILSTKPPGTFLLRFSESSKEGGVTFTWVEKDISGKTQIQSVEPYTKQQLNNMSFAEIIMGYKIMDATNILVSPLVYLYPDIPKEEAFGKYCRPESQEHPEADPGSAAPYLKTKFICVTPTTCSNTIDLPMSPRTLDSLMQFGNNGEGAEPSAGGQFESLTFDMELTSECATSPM

Molecule | IC50 [1, 7] | IC50 [1, 8] | IC50 [2] | IC50 [3, 9] | IC50 [3, 10] | IC50 [4] | IC50 (MDA-MB-231 cells; [11]) | IC50 (MDA-MB-468 cells) | Stat3-inhibitory potency on replacing the para-fluorine [1] | IC50 [1, 12] | further results
O=C(NO)c1ccc(N(Cc2ccc(C3CCCCC3)cc2)C(=O)[C@H]2CCN2S(=O)(=O)c2c(F)c(F)c(F)c(F)c2F)c(F)c1 [Compound H105] | 1.8 µM | 1.75 to 2.07 µM | 8.3 µM | 15.8 µM | > 20 µM | 20 µM | 2.6 to 3.6 µM | 2.6 to 3.6 µM |  |  | 
O=C(NO)c1ccc(N(Cc2ccc(C3CCOCC3)cc2)C(=O)[C@H]2CCN2S(=O)(=O)c2c(F)c(F)c(F)c(F)c2F)cc1O [Compound H120] | 2.1 µM | 1.75 to 2.07 µM | 7.2 µM | > 20 µM | > 20 µM | > 20 µM | 2.6 to 3.6 µM | 2.6 to 3.6 µM |  |  | Tumor growth, MDA-MB-231 xenografts ([5]; H120 oral gavage daily 20 mg/kg for 14 days, then 30 mg/kg for 14 days): significant tumor growth inhibition; Body weights and obvious signs of toxicity ([5]; the three xenograft studies): No notable changes
O=C(O)c1ccc(N(Cc2cnc(C3CCCCC3)cn2)C(=O)[C@H]2CCN2S(=O)(=O)c2c(F)c(F)cc(F)c2F)cc1O [Compound H176] |  |  |  |  |  |  |  |  | loss of Stat3-inhibitory potency | > 30 µM | 
O=C(O)c1ccc(N(Cc2cnc(C3CCCCC3)cn2)C(=O)[C@H]2CCN2S(=O)(=O)c2c(F)c(F)c(Cl)c(F)c2F)cc1O [Compound H186] |  |  |  |  |  |  |  |  | loss of Stat3-inhibitory potency | > 30 µM | 
N.N.[Cl][Pt][Cl] [cisplatin, reference compound] |  |  |  |  |  |  |  |  |  |  | IC50 (MDA-MB-231 cells; MDA-MB-231, DMSO or 1 μM H182 pre-treatment 6 h, then docetaxel or cisplatin, total 72 h, read-out: IC50 of chemotherapeutic agent alone or with H182): 7 µM
GpYLPQTV-NH2 (G[pY]LPQTV-NH2) [reference compound] |  |  |  |  |  |  |  |  |  |  | Effect on FP signal [6]: dose-dependent reduction of the FP signal down to the baseline of 45–50 mP
